Data reported in PubChem BioAssay AID1963431 (Molecular Pharmacology Branch, DTP, NCI, 2024).
“And” between values parts separate entries of the source, which are not always exact repeats. Equal values may be shown once.

System: Rh18 complex spheroid viability, percent test/control
Assay: Anticancer human tumor Rh18 cell line growth inhibition [Asc];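 note: spheroids exposed to compound for 7 days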;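 for viability, T/C: 100% = DMSO vehicle control wells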
Conditions: for viability, T/C: stronger effect = lower value
How it was run: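 Complex spheroids combining tumor cells with HUVEC endothelial cells and human MSCs, at 37 degrees C, 5% CO2; agents tested alone or combined, half-log dilutions from at or near clinical Cmax, or 10 microM if Cmax unknown.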

[1] = curve of first compound, second compound 0.1 µM
[2] = curve of first compound, second compound 0.316 µM
[3] = curve of first compound, second compound 1 µM
[4] = curve of first compound, second compound 3.16 µM
[5] = curve of first compound, second compound 10 µM
[6] = second compound 0.1 µM, first compound 0.00949 µM
[7] = second compound 0.1 µM, first compound 0.03 µM
[8] = second compound 0.1 µM, first compound 0.0949 µM
[9] = second compound 0.1 µM, first compound 0.3 µM
[10] = second compound 0.1 µM, first compound 0.949 µM
[11] = second compound 0.1 µM, first compound 3 µM
[12] = second compound 0.316 µM, first compound 0.00949 µM
[13] = second compound 0.316 µM, first compound 0.03 µM
[14] = second compound 0.316 µM, first compound 0.0949 µM
[15] = second compound 0.316 µM, first compound 0.3 µM
[16] = second compound 0.316 µM, first compound 0.949 µM
[17] = second compound 0.316 µM, first compound 3 µM
[18] = second compound 1 µM, first compound 0.00949 µM
[19] = second compound 1 µM, first compound 0.03 µM
[20] = second compound 1 µM, first compound 0.0949 µM
[21] = second compound 1 µM, first compound 0.3 µM
[22] = second compound 1 µM, first compound 0.949 µM
[23] = second compound 1 µM, first compound 3 µM

## CCN1C(C(=O)NC23CCC(C(=O)O)(CC2)CC3)C(c2cccc(Cl)c2F)C2(C(=O)Nc3cc(Cl)ccc32)C12CCCCC2 (centres undefined) + Cc1c(S(C)(=O)=O)c(-c2cc(F)cc(N3CCN(c4ccc(NS(=O)(=O)c5ccc(NC(CCN6CCC(C(=O)OCCCP(=O)(O)O)CC6)CSc6ccccc6)c(S(=O)(=O)C(F)(F)F)c5)cc4)CC3)c2)c(-c2ccc(Cl)cc2)n1C(C)C
[1]
  IC50: < 9.49 nM
[2]
  IC50: < 9.49 nM
[3]
  IC50: < 9.49 nM
[4]
  IC50: < 9.49 nM
[5]
  IC50: < 9.49 nM
[6]
  viability, T/C: 19%
[7]
  viability, T/C: 21%
[8]
  viability, T/C: 10.3%
[9]
  viability, T/C: 6.82%
[10]
  viability, T/C: 7.29%
[11]
  viability, T/C: 3.96%
[12]
  viability, T/C: 12%
[13]
  viability, T/C: 16.4%
[14]
  viability, T/C: 7.76%
[15]
  viability, T/C: 5.97%
[16]
  viability, T/C: 4.04%
[17]
  viability, T/C: 0.91%
[18]
  viability, T/C: 8.76%
[19]
  viability, T/C: 8.85%
[20]
  viability, T/C: 5.21%
[21]
  viability, T/C: 4.08%
[22]
  viability, T/C: 1.55%
[23]
  viability, T/C: 0.87%
Second compound 3.16 µM, first compound 0.00949 µM
  viability, T/C: 6.63%
Second compound 3.16 µM, first compound 0.03 µM
  viability, T/C: 5.76%
Second compound 3.16 µM, first compound 0.0949 µM
  viability, T/C: 4.28%
Second compound 3.16 µM, first compound 0.3 µM
  viability, T/C: 3.45%
Second compound 3.16 µM, first compound 0.949 µM
  viability, T/C: 0.93%
Second compound 3.16 µM, first compound 3 µM
  viability, T/C: 0.73%
Second compound 10 µM, first compound 0.00949 µM
  viability, T/C: 5.47%
Second compound 10 µM, first compound 0.03 µM
  viability, T/C: 3.7%
Second compound 10 µM, first compound 0.0949 µM
  viability, T/C: 2.69%
Second compound 10 µM, first compound 0.3 µM
  viability, T/C: 1.52%
Second compound 10 µM, first compound 0.949 µM
  viability, T/C: 0.64%
Second compound 10 µM, first compound 3 µM
  viability, T/C: 0.73%

## C=C(F)C(=O)N1CCN(c2nc(OCC3CCCN3C)nc3c2CCN(c2cccc4cccc(Cl)c24)C3)CC1CC#N (centres undefined)
Compound 0.0316 µM
  viability, T/C: 94.1% and 96.8% and 96.1%
Compound 0.1 µM
  viability, T/C: 98.8% and 93.5% and 87.2%
Compound 0.316 µM
  viability, T/C: 90.9% and 56.4% and 91.5%
Compound 1 µM
  viability, T/C: 97.4% and 101% and 93.5%
Compound 3.16 µM
  viability, T/C: 35.8% and 36.4% and 35.5%
Compound 10 µM
  viability, T/C: 0.31% and 0.29% and 0.27%
Curve of compound
  IC50: 2410 nM and 2320 nM and 2350 nM

## Cc1nc(N2CCC3(CC2)COC(C)C3N)c(CO)nc1Sc1ccnc(N)c1Cl (centres undefined) + CNC(C)C(=O)NC1CN(S(=O)(=O)c2cccc(S(=O)(=O)N3CCC4CCC(C(=O)NC(c5ccccc5)c5ccccc5)N4C(=O)C(NC(=O)C(C)NC)C3)c2)CCC2CCC(C(=O)NC(c3ccccc3)c3ccccc3)N2C1=O
Curve of first compound, second compound 0.00316 µM
  IC50: 12.3 nM
Curve of first compound, second compound 0.01 µM
  IC50: 18.8 nM
Curve of first compound, second compound 0.0316 µM
  IC50: 12.4 nM
[1]
  IC50: 15.6 nM
[2]
  IC50: < 9.49 nM
[3]
  IC50: 11.5 nM
Second compound 0.00316 µM, first compound 0.00949 µM
  viability, T/C: 44.4%
Second compound 0.00316 µM, first compound 0.03 µM
  viability, T/C: 60%
Second compound 0.00316 µM, first compound 0.0949 µM
  viability, T/C: 34.7%
Second compound 0.00316 µM, first compound 0.3 µM
  viability, T/C: 33.7%
Second compound 0.00316 µM, first compound 0.949 µM
  viability, T/C: 23.2%
Second compound 0.00316 µM, first compound 3 µM
  viability, T/C: 12.9%
Second compound 0.01 µM, first compound 0.00949 µM
  viability, T/C: 56%
Second compound 0.01 µM, first compound 0.03 µM
  viability, T/C: 48.8%
Second compound 0.01 µM, first compound 0.0949 µM
  viability, T/C: 30.7%
Second compound 0.01 µM, first compound 0.3 µM
  viability, T/C: 25.8%
Second compound 0.01 µM, first compound 0.949 µM
  viability, T/C: 23.2%
Second compound 0.01 µM, first compound 3 µM
  viability, T/C: 14.9%
Second compound 0.0316 µM, first compound 0.00949 µM
  viability, T/C: 51.2%
Second compound 0.0316 µM, first compound 0.03 µM
  viability, T/C: 45.7%
Second compound 0.0316 µM, first compound 0.0949 µM
  viability, T/C: 31.2%
Second compound 0.0316 µM, first compound 0.3 µM
  viability, T/C: 23.3%
Second compound 0.0316 µM, first compound 0.949 µM
  viability, T/C: 23.4%
Second compound 0.0316 µM, first compound 3 µM
  viability, T/C: 16.1%
[6]
  viability, T/C: 63%
[7]
  viability, T/C: 32.3%
[8]
  viability, T/C: 22.9%
[9]
  viability, T/C: 28.2%
[10]
  viability, T/C: 21.9%
[11]
  viability, T/C: 13.2%
[12]
  viability, T/C: 45.9%
[13]
  viability, T/C: 24.1%
[14]
  viability, T/C: 31.3%
[15]
  viability, T/C: 25.5%
[16]
  viability, T/C: 18.9%
[17]
  viability, T/C: 13.9%
[18]
  viability, T/C: 54%
[19]
  viability, T/C: 30%
[20]
  viability, T/C: 22%
[21]
  viability, T/C: 22.8%
[22]
  viability, T/C: 37.9%
[23]
  viability, T/C: 16.7%

## COc1c(OCCCN2CCOCC2)ccc2c3n(c(=NC(=O)c4cnc(N)nc4)nc12)CCN3 + Cc1c(S(C)(=O)=O)c(-c2cc(F)cc(N3CCN(c4ccc(NS(=O)(=O)c5ccc(NC(CCN6CCC(C(=O)OCCCP(=O)(O)O)CC6)CSc6ccccc6)c(S(=O)(=O)C(F)(F)F)c5)cc4)CC3)c2)c(-c2ccc(Cl)cc2)n1C(C)C
[1]
  IC50: < 3.16 nM
[2]
  IC50: < 3.16 nM
[3]
  IC50: < 3.16 nM
[4]
  IC50: < 3.16 nM
[5]
  IC50: < 3.16 nM
Second compound 0.1 µM, first compound 0.00316 µM
  viability, T/C: 17.1%
Second compound 0.1 µM, first compound 0.01 µM
  viability, T/C: 9.25%
Second compound 0.1 µM, first compound 0.0316 µM
  viability, T/C: 5.96%
Second compound 0.1 µM, first compound 0.1 µM
  viability, T/C: 2.81%
Second compound 0.1 µM, first compound 0.316 µM
  viability, T/C: 0.62%
Second compound 0.1 µM, first compound 1 µM
  viability, T/C: 0.45%
Second compound 0.316 µM, first compound 0.00316 µM
  viability, T/C: 7.85%
Second compound 0.316 µM, first compound 0.01 µM
  viability, T/C: 8.34%
Second compound 0.316 µM, first compound 0.0316 µM
  viability, T/C: 4.97%
Second compound 0.316 µM, first compound 0.1 µM
  viability, T/C: 1.98%
Second compound 0.316 µM, first compound 0.316 µM
  viability, T/C: 0.56%
Second compound 0.316 µM, first compound 1 µM
  viability, T/C: 0.49%
Second compound 1 µM, first compound 0.00316 µM
  viability, T/C: 8.6%
Second compound 1 µM, first compound 0.01 µM
  viability, T/C: 6.08%
Second compound 1 µM, first compound 0.0316 µM
  viability, T/C: 4.68%
Second compound 1 µM, first compound 0.1 µM
  viability, T/C: 1.06%
Second compound 1 µM, first compound 0.316 µM
  viability, T/C: 0.44%
Second compound 1 µM, first compound 1 µM
  viability, T/C: 0.48%
Second compound 3.16 µM, first compound 0.00316 µM
  viability, T/C: 5.39%
Second compound 3.16 µM, first compound 0.01 µM
  viability, T/C: 5.31%
Second compound 3.16 µM, first compound 0.0316 µM
  viability, T/C: 3.11%
Second compound 3.16 µM, first compound 0.1 µM
  viability, T/C: 0.45%
Second compound 3.16 µM, first compound 0.316 µM
  viability, T/C: 0.35%
Second compound 3.16 µM, first compound 1 µM
  viability, T/C: 0.46%
Second compound 10 µM, first compound 0.00316 µM
  viability, T/C: 3.54%
Second compound 10 µM, first compound 0.01 µM
  viability, T/C: 5%
Second compound 10 µM, first compound 0.0316 µM
  viability, T/C: 2.62%
Second compound 10 µM, first compound 0.1 µM
  viability, T/C: 0.51%
Second compound 10 µM, first compound 0.316 µM
  viability, T/C: 0.53%
Second compound 10 µM, first compound 1 µM
  viability, T/C: 0.49%
